From ChEMBL document CHEMBL1143330, “Preliminary investigations on the synthesis and antitumor activity of 3(2H)-furanones” (Bioorg Med Chem Lett, 2009) come the findings set out here.

Molecules are shown by their SMILES. Calls of active or inactive are those of the source. No cut-off for these calls is given here.

The subject of assay [1] is DLA. Put plainly: Antitumor activity in mouse DLA cells xenografted Swiss albino mouse assessed as inhibition of tumor cell proliferation at 1 mg/kg, po administered after 7 days of tumor induction measured each 3 days upto 31 days. It is filed as functional, organism-based. Further details: dose 1 mg/kg.
Assay [2] deals with DLA. Kind of assay: Antiproliferative activity against mouse DLA cells assessed as radiolabeled thymidine incorporation at 10 to 200 ug after 24 hrs by liquid scintillation counter. The format is functional, cell-based. (Incorporation of labelled thymidine or its analogues reports DNA synthesis.)

With `CC(=O)OC1(c2ccccc2)OC(c2ccccc2)=C(c2ccccc2)C1=O` (centres undefined), the result in the assay with DLA [1] and in the assay on DLA [2] was Active.

`COC1(c2ccccc2)OC(c2ccccc2)=C(c2ccccc2)C1=O` (centres undefined): the outcome in the assay with DLA [1] and in the assay on DLA [2] was Active.
